Measurements as given in patent US6187793A, “7-[(Piperidin-1-YL)-Propoxy]-chromen-4-one derivatives, their preparation and their pharmaceutical use” (Ferrer Internacional, S.A., priority 1997, dated 2001).
“Also recorded” adds a separate entry of the source. Read-outs that look alike come from different tables or passages of the source.

Tests used:
[1] = catalepsy test (cataleptic activity, oral route); details: rat
Method: (§1) For assessment, each animal was placed on the bottom of a small upright box ([…]). The walls of the box were made of translucent methacrylate except one of the lateral surfaces (7.5 cm wide) which was a 3-mm wire mesh. The position of the animal was scored for 2 minutes according to the following criteria: 0=four paws on the floor; 1=three paws on the floor; 2=two paws on the floor; 3=one paw on the floor; and 4=four paws holding the wire mesh. If an animal keeps several positions within the 2-min observation, the seconds elapsed in each position will be recorded. Finally, mean scoring was calculated.

[2] = system: apomorphine-induced climbing behaviour; test: inhibition test of apomorphine-induced climbing behaviour; type: in vivo, male Swiss mice; details: Mus musculus, 1 h, read-out: Climbing ID50
Method: For the practical performance of this experiment, male Swiss mice weighing 22-24 g were used. One week prior to experiment, animals were kept in our facilities at a temperature of 20-22° C. and 12/12 h light-dark cycle, and had free access to food and water. Two hours prior to experiment, the animals were placed in individual cages without access to food.
Animals were administered orally with test drug or 0.25% agar at time 0. After 60 minutes, apomorphine was subcutaneously injected at a dose of 1 mg/kg, and after further 70 minutes the animal's behaviour was assessed. Two additional assessments were performed at 10-min intervals.
as §1

5-HT2A receptors = target: T1, 5-HT2A receptors (Rattus norvegicus, UniProt P14842); test: specific binding to 5-HT2A receptors ([3H]ketanserin, rat cortex membrane); details: for IC50: [3H]ketanserin 0.5 nM, rat cortex, 30 min, 35° C., pH 7.4; for potency as ligand of 5-HT2A receptors versus compound of Example 2' of ES 9600323: in words, from Table 1
T1 construct: membrane corresponding to 1 mg of rat cortex; from tissue; host or cells: rat cortex membrane
T1 sequence (P14842 whole entry): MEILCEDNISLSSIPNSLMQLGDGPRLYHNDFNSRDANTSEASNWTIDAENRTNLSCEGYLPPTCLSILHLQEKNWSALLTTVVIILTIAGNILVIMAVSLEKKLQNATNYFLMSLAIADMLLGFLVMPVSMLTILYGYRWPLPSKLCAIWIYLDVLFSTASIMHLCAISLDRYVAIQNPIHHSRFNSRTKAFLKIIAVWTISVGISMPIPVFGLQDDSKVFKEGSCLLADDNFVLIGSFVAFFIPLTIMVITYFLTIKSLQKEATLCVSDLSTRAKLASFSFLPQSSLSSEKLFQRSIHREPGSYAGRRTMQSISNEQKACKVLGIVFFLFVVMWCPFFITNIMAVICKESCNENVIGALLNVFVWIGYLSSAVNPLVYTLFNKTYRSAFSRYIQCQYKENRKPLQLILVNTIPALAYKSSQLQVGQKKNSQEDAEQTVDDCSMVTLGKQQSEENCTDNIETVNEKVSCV

histamine H1 receptors = target: T2, histamine H1 receptors (Cavia porcellus, UniProt P31389); test: biochemical; type: binding, guinea-pig; details: for potency as ligand of H1 receptors versus compound of Example 2' of ES 9600323 / potency as ligand of H1 receptors versus promethazine: in words, from Table 2
T2 construct: incubation of guinea-pig cerebellum membranes; from tissue; host or cells: guinea-pig cerebellum membranes
T2 sequence (P31389 whole entry): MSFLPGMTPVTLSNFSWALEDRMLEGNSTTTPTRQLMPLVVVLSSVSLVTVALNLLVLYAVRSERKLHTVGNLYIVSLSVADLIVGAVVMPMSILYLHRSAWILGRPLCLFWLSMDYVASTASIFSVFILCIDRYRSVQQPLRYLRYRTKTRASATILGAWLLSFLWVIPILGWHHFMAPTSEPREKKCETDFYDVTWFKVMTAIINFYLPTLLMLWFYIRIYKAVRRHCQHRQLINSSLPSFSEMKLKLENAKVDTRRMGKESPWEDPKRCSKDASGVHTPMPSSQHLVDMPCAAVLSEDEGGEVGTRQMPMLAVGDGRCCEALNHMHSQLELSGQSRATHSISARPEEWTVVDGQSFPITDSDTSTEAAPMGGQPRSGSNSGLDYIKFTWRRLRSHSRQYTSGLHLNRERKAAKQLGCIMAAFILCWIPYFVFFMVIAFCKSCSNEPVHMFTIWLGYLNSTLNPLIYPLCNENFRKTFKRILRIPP
Method: The bound radioactivity was separated by filtration (Whatman GF/B) in a Brandel Harvester. The amount of receptor-bound radioactivity present in the filters was determined using a Packard 1800TR counter. The specific binding was established with a 1 μM concentration of triprolidine.

D2 receptors = D2 receptors (Rattus norvegicus, UniProt P61169); test: specific binding to D2 receptors ([3H]spiperone, rat striatum membrane); details: in words, from Table 1
Sequence of D2 receptors (P61169 whole entry): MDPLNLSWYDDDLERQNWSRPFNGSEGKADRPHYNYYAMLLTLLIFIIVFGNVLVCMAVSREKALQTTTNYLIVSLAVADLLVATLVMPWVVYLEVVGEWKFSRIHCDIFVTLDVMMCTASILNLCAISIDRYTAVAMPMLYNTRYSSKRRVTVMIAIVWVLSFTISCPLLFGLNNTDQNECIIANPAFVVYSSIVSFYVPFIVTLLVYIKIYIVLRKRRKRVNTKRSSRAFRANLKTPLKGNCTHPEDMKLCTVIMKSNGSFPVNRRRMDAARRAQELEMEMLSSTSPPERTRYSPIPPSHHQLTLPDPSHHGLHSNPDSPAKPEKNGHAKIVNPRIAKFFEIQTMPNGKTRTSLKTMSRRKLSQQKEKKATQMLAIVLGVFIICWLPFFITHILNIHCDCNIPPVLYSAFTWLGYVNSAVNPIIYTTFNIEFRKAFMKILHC

[3] = therapeutic index (catalepsy ED50 / climbing ID50); details: for selectivity ratio: in vivo, po; for therapeutic index versus compound of Example 2' of ES 9600323 and haloperidol: in words, from Table 3
Method: as §1

[4] = oral, male Swiss mice, apomorphine 1 mg/kg s.c. after 60 minutes

## O=c1c(CO)coc2cc(OCCCN3CCC(c4noc5cc(F)ccc45)CC3)ccc12 [Ex. 2' (ES 9600323), reference compound]
[1]; in vivo
  TD50: 3.8 mg/kg
[2]; po
  ED50: 0.25 mg/kg
5-HT2A receptors
  IC50: 3.08 nM
Histamine H1 receptors; [3H]-pyrilamine 1 nM, guinea-pig cerebellum, 25° C., 60 minutes, read-out: IC50, H1 receptors
  IC50: 1.2 nM

## O=Cc1coc2cc(OCCCN3CCC(c4noc5cc(F)ccc45)CC3)ccc2c1=O [Example 1, 7-[3-[4-(6-fluorobenzo[d]isoxazole-3-yl)piperidine-1-yl]propoxy]-3-formyl-chromen-4-one]
5-HT2A receptors
  IC50: 2.11 nM
  potency as ligand of 5-HT2A receptors versus compound of Example 2' of ES 9600323: more potent
D2 receptors
  potency as ligand of D2 receptors versus compound of Example 2' of ES 9600323: more potent

## Cl.O=C(O)c1coc2cc(OCCCN3CCC(c4noc5cc(F)ccc45)CC3)ccc2c1=O [Example 2, 7-[3-[4-(6-fluorobenzo[d]isoxazole-3-yl)piperidin-1-yl]propoxy]-4-oxochromene-3-carboxylic acid hydrochloride]
5-HT2A receptors
  IC50: 0.594 nM
  potency as ligand of 5-HT2A receptors versus compound of Example 2' of ES 9600323: more potent
D2 receptors
  potency as ligand of D2 receptors versus compound of Example 2' of ES 9600323: more potent

## COCc1coc2cc(OCCCN3CCC(c4noc5cc(F)ccc45)CC3)ccc2c1=O.Cl [Example 3, 7-[3-[4-(6-fluorobenzo[d]isoxazole-3-yl)piperidin-1-yl]propoxy]-3-methoxymethyl-chromen-4-one hydrochloride]
[1]; po
  TD50: 6.79 mg/kg
[2]; [4]
  ED50: 0.21 mg/kg
[3]
  selectivity ratio: 32.3
  therapeutic index versus compound of Example 2' of ES 9600323 and haloperidol: higher therapeutic index
Histamine H1 receptors
  IC50: 0.339 nM
  potency as ligand of H1 receptors versus compound of Example 2' of ES 9600323: more potent
Histamine H1 receptors; hydrochloride
  potency as ligand of H1 receptors versus promethazine: of the same order as promethazine; also recorded: greater than that of standard promethazine

## Cl.O=c1cc(CO)oc2cc(OCCCN3CCC(c4noc5cc(F)ccc45)CC3)ccc12 [Example 6, 7-[3-[4-(6-fluorobenzo[d]isoxazole-3-yl)piperidin-1-yl]propoxy]-2-(hydroxymethyl)-chromen-4-one hydrochloride]
[1]; po
  TD50: > 100 mg/kg
[2]; [4]
  ED50: 5.87 mg/kg
[3]
  selectivity ratio: > 17
  therapeutic index versus compound of Example 2' of ES 9600323 and haloperidol: higher therapeutic index
Histamine H1 receptors
  IC50: 1.01 nM
  potency as ligand of H1 receptors versus compound of Example 2' of ES 9600323: more potent
  potency as ligand of H1 receptors versus promethazine: of the same order as promethazine

## O=C(CCCN1CCC(O)(c2ccc(Cl)cc2)CC1)c1ccc(F)cc1 [Haloperidol, haloperidol, reference compound]
[1]; in vivo
  TD50: 2 mg/kg
[2]; [4]
  ED50: 0.32 mg/kg
